From patent publication US20050142231A1, “Pharmaceutical activity and manufacturing method of the five-plant compound hypolipemic products” (priority 2003, published 2005)

Tested on: lecithin cholesterol acyltransferase (LCAT)
Experiment: Effect upon activity of lecithin cholesterol acyltransferase in rats suffering from hyperlipemia
Assay type: in vivo, rat
From the text: The original lecithin and cholesterol in the serum were used as substrates, which were kept warm for some time. Because of the effect of lecithin cholesterol acyltransferase (LCAT), cholesterolester (CE) in serum was increased, but free cholesterol (FC) decreased. Then cholesterol was oxidized by cholesterol oxidase and hydrogen peroxide was produced. The latter reacted with […] and phenol under the action of horseradish peroxidase to produce red quinone imide, which can be used for colorimetric analysis to determine the content of FC. The decrease in FC, ie, the esterification of cholesterol can indicate the activity of LCAT in magnitude. […]
(2) Two portions of 0.1 ml fresh serum were taken from each animal of each group and were preheated in water bath at 37° C. for five minutes, to one portion of which 3 ml cholesterol enzyme-linked reagent application solution was added (30 ml enzyme reaction solution for 1 ml cholesterol enzyme-linked reagent), mixed thoroughly and heated in water bath at 37° C. for 15 minutes while blank control tube and standard tube (0.05 ml standard cholesterol absolute alcohol solution) were made. […] OD was read and FC content was calculated in terms of Beer's law, which was the serum FC content before reaction. […] Then FC content was determined as above, expressed as OD, which was the serum FC content after reaction. […]

## CCOC(=O)C(C)(C)Oc1ccc(Cl)cc1 [Astromid-s]
0.13 g/kg
  Effect on activity of LCAT (in words): not noticeable
Hyperlipemia rat serum, dose 0.13 g/kg for seven days, x ± SD
  LCAT activity (TC esterification nmol/ml/h): 536 ± 277 nmol/mL/h
